Results on three compounds are retold here after patent US7181271B2, “Synergism of photodynamic and electropermeation effect on cell vitality as a novel cytotoxic agent” (Genetronics, Inc., priority 2003, dated 2007).

One test concerns U937 cells. The test can be described thus: Cell viability by trypan blue exclusion after electroporation (250 V, 400 F) and 14 min irradiation. It is filed as cell-based. The conditions noted are these: for Total dead cells for exp. / Dead cells by pulse / Dead cells by light for control: 1 × 10^−5 M agent, 18–22 C; for Total dead cells for exp. / Dead cells by pulse / Dead cells by light for control / Final dead cells: exp/control: U937 cells; for Total dead cells for exp.: pulse 250 V plus 14 min irradiation; for Dead cells by pulse: single pulse 250 V (1.2 kV/cm), 400 F, 11–12 ms, 14 min irradiation; for Dead cells by light for control: unpulsed control, irradiated 14 min; for Final dead cells: exp/control: ratio of total dead cells (pulse + light) to dead cells by light only, 1 × 10^−5 M.

For test [1] the following is noted: type 1 photoreaction; cited from earlier work.

Turning to `COc1cccc2c1C(=O)c1c(O)c3c(c(O)c1C2=O)C[C@@](O)(C(C)=O)C[C@@H]3O[C@H]1C[C@H](N)[C@H](O)[C@H](C)O1` [DAM, daunomycin], in the test on U937 cells, the “Total dead cells for exp.” value was 87.5%, the “Dead cells by pulse” value turned out to be 63.4%, the “Dead cells by light for control” value worked out at 17.6% and the “Final dead cells: exp/control” value turned out to be 4.9. Also, in the test with U937 cells (unpulsed U937 cells, without irradiation), the “penetration and dark effect (without irradiation)” value was “increases with time”.

With `C=CC1=C(C)c2cc3[nH]c(cc4nc(cc5[nH]c(cc1n2)c(C)c5CCC(=O)O)C(CCC(=O)O)=C4C)c(C)c3C=C` [PP, protoporphyrin], in the test on U937 cells, the “Total dead cells for exp.” value is reported as 91.6%, the “Dead cells by pulse” value stood at 65.8%, the “Dead cells by light for control” value stood at 18.8% and the “Final dead cells: exp/control” value was determined as 4.9.

With `CN(C)c1ccc2cc3ccc(=[N+](C)C)cc-3sc2c1.[Cl-]` [TP, thiopyronin], in the test with U937 cells, the “Total dead cells for exp.” value is on record as 98.6%, the “Dead cells by pulse” value is on record as 80.3%, the “Dead cells by light for control” value turned out to be 20.1% and the “Final dead cells: exp/control” value is reported as 4.9. Moreover, in test [1], the “rate constant of oxidizing guanosine” value is 3.8e+06 M⁻¹ s⁻¹.
